Laboratory results taken from patent US20230090255A1, “MAGL INHIBITOR, PREPARATION METHOD THEREFOR AND USE THEREOF” (LUNAN PHARMACEUTICAL GROUP CORPORATION, priority 2019, published 2023).

Legend:
[1] = tested on: ulcerative colitis mice; experiment: Mice ulcerative colitis (DSS); assay type: in vivo, BALB/c mice; conditions: for Total times of hematochezia within the four periods / Colon length / IL-1 content: DSS mice; for Colon length: four periods; for IL-1 content: serum, ELISA
[2] = tested on: mice with inflammatory pain; experiment: Pain threshold of mice with inflammatory pain (complete Freund's adjuvant); assay type: in vivo, SD mice; conditions: for Pain threshold: complete Freund's adjuvant paw model
[3] = tested on: mice pain response induced by hot plate; experiment: Mice pain response induced by hot plate; assay type: in vivo, ICR mice; conditions: for Pain threshold: hot plate 55°C
Outline: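 Female ICR mice (20±2 g) dosed intragastrically for 7 consecutive days. Latency to hind-paw licking on a 55±0.5° C hot plate measured at 30, 60, 90 and 120 min after the last dose, with a 60 s cap. Mice with baseline latency <5 s or >30 s, or jumping, excluded.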

[4] = tested on: mice writhing caused by acetic acid; experiment: Mice writhing caused by acetic acid; conditions: for Writhing times: 1 h before 0.7% acetic acid ip, within 20 min; for Latent time: time to first writhing; for Inhibition ratio: writhing inhibition
Method: Each compound was prepared into a suspension by 0.5% sodium carboxymethylcellulose respectively, and then set according to the dose, and each administration group was administered intragastrically; the model group was administered intragastrically an equal volume of 0.5% sodium carboxymethylcellulose.
Mice were intraperitoneally injected with acetic acid to cause a large area and more lasting painful stimuli in deep enterocoelia, causing mice to produce writhing responses. After being administered for 1 h, each dose group was intraperitoneally injected with 0.7% acetic acid-normal saline solution (0.1 ml/10 g).
The time (pain latent time) that the mice started to appear writhing after being intraperitoneally injected with acetic acid was recorded.
The writhing response times of each mouse within 20 min were recorded after injecting acetic acid to cause pain, and then, the writhing inhibition ratio of each administration group was calculated.
Writhing inhibition ratio = [(writhing times of the control group -writhing times of the administration group)/writhing times of the control group] × 100%
Experimental data is shown by x±s and subjected to variance analysis by SPSS 15.0 software.

[5] = tested on: irritable bowel syndrome rats; experiment: Irritable bowel syndrome rats induced by early maternal separation; assay type: in vivo, SD rats; design: AWR scoring: scale not given here; conditions: for Colon 5-HT / Serum 5-HT / AWR scoring: IBS rats

For `Cn1c(C(=O)N2CCC(C(=O)Nc3cccc(Cl)c3)CC2)cc2ccccc21` [MAGLZ-II-18 (c)], the “Total times of hematochezia within the four periods” value ([1]; high dose 30 mg/kg ig) was 31.80±6.6, the Colon length ([1]; high dose 30 mg/kg ig) was 6.65±0.67 cm and the IL-1 content ([1]; high dose 30 mg/kg ig) was 45.10 ± 8.88 pg/mL. For the same compound, the “Total times of hematochezia within the four periods” value ([1]; low dose 7.5 mg/kg ig) was 43.10±7.59, the Colon length ([1]; low dose 7.5 mg/kg ig) was 6.25±1.17 cm and the IL-1 content ([1]; low dose 7.5 mg/kg ig) was 48.08 ± 13.18 pg/mL. The “Total times of hematochezia within the four periods” value ([1]; middle dose 15 mg/kg ig) was 43.20±5.31, the Colon length ([1]; middle dose 15 mg/kg ig) was 6.47±0.71 cm and the IL-1 content ([1]; middle dose 15 mg/kg ig) was 44.09 ± 9.13 pg/mL. The “IL-1 content, in words” value ([1]; compared with the model group) was “decrease”, the “colon length, in words” value ([1]; compared with the model group) was “significantly increase” and the “total times of hematochezia, in words” value ([1]; compared with the model group) was “reduce”. For the same compound, the “pain threshold of the mice with inflammatory pain, in words” value ([2]; compared with the model group) was “significantly extend”, the Pain threshold ([2]; high dose 30 mg/kg ig once per day, 0 d) was 12.85±2.09^∗ s and the Pain threshold ([2]; high dose 30 mg/kg ig once per day, 1 d) was 6.44±0.92^∗ s. The Pain threshold ([2]; high dose 30 mg/kg ig once per day, 3 d) was 8.17±1.14^∗ s, the Pain threshold ([2]; high dose 30 mg/kg ig once per day, 7 d) was 9.05±0.84^∗ s and the Pain threshold ([2]; low dose 7.5 mg/kg ig once per day, 0 d) was 12.75±2.46^∗ s. The Pain threshold ([2]; low dose 7.5 mg/kg ig once per day, 1 d) was 6.36±0.89^∗ s, the Pain threshold ([2]; low dose 7.5 mg/kg ig once per day, 3 d) was 7.98±1.21^∗ s and the Pain threshold ([2]; low dose 7.5 mg/kg ig once per day, 7 d) was 8.95±0.67^∗ s. The Pain threshold ([2]; middle dose 15 mg/kg ig once per day, 0 d) was 12.86±2.07^∗ s, the Pain threshold ([2]; middle dose 15 mg/kg ig once per day, 1 d) was 6.41±0.91^∗ s and the Pain threshold ([2]; middle dose 15 mg/kg ig once per day, 3 d) was 8.10±1.30^∗ s. The Pain threshold ([2]; middle dose 15 mg/kg ig once per day, 7 d) was 8.99±0.92^∗ s, the “pain thresholds of the thermal-stimulus mice, in words” value ([3]; compared with the model group) was “significantly extend” and the Pain threshold ([3]; high dose 30 mg/kg ig 7 d, 30 min after final administration) was 29.23 ± 7.95 s. It also gave a Pain threshold ([3]; high dose 30 mg/kg ig 7 d, 60 min) of 30.24 ± 7.80 s, a Pain threshold ([3]; high dose 30 mg/kg ig 7 d, 90 min) of 30.66 ± 8.35 s and a Pain threshold ([3]; high dose 30 mg/kg ig 7 d, 120 min) of 29.87 ± 7.43 s. The Pain threshold ([3]; low dose 7.5 mg/kg ig 7 d, 30 min after final administration) was 23.98 ± 6.89 s, the Pain threshold ([3]; low dose 7.5 mg/kg ig 7 d, 60 min) was 24.75 ± 6.91 s and the Pain threshold ([3]; low dose 7.5 mg/kg ig 7 d, 90 min) was 25.16 ± 8.87 s. For the same compound, the Pain threshold ([3]; low dose 7.5 mg/kg ig 7 d, 120 min) was 24.28 ± 7.17 s, the Pain threshold ([3]; middle dose 15 mg/kg ig 7 d, 30 min after final administration) was 26.82 ± 7.99 s and the Pain threshold ([3]; middle dose 15 mg/kg ig 7 d, 60 min) was 28.52 ± 6.18 s. For the same compound, the Pain threshold ([3]; middle dose 15 mg/kg ig 7 d, 90 min) was 28.66 ± 8.73 s, the Pain threshold ([3]; middle dose 15 mg/kg ig 7 d, 120 min) was 27.88 ± 7.74 s and the “latent time, in words” value ([4]; compared with the model group) was “extend”. For the same compound, the “mice writhing times caused by acetic acid, in words” value ([4]; compared with the model group) was “significantly decrease”, the Writhing times ([4]; high dose 30 mg/kg ig) was 19.9±12.2 and the Latent time ([4]; high dose 30 mg/kg ig) was 373.6 ± 114.0 s. For the same compound, the Inhibition ratio ([4]; high dose 30 mg/kg ig) was 49.4%, the Writhing times ([4]; low dose 7.5 mg/kg ig) was 28.3±11.9 and the Latent time ([4]; low dose 7.5 mg/kg ig) was 263.5 ± 77.7 s. It also gave an Inhibition ratio ([4]; low dose 7.5 mg/kg ig) of 28.0%, a Writhing times ([4]; middle dose 15 mg/kg ig) of 24.9±12.2 and a Latent time ([4]; middle dose 15 mg/kg ig) of 312.7 ± 90.9 s. For the same compound, the Inhibition ratio ([4]; middle dose 15 mg/kg ig) was 36.6%, the “Colon 5-HT” value ([5]; high dose 30 mg/kg ig 20 d) was 14.34±2.40^∗∗∗ µg/mg and the “Serum 5-HT” value ([5]; high dose 30 mg/kg ig 20 d) was 29.03±5.29^∗∗∗ µg/ml. For the same compound, the AWR scoring ([5]; high dose 30 mg/kg ig 20 d, 20 mm Hg) was 1.38±0.51^∗∗ ∗, the AWR scoring ([5]; high dose 30 mg/kg ig 20 d, 40 mm Hg) was 2.20±0.57^∗∗∗ and the AWR scoring ([5]; high dose 30 mg/kg ig 20 d, 60 mm Hg) was 2.96±0.70^∗∗∗. The “Colon 5-HT” value ([5]; low dose 7.5 mg/kg ig 20 d) was 16.84 ± 2.87 µg/mg, the “Serum 5-HT” value ([5]; low dose 7.5 mg/kg ig 20 d) was 34.2 ± 5.37 µg/mL and the AWR scoring ([5]; low dose 7.5 mg/kg ig 20 d, 20 mm Hg) was 2.28±0.58. The AWR scoring ([5]; low dose 7.5 mg/kg ig 20 d, 40 mm Hg) was 3.20±0.43, the AWR scoring ([5]; low dose 7.5 mg/kg ig 20 d, 60 mm Hg) was 3.61±0.24 and the “Colon 5-HT” value ([5]; middle dose 15 mg/kg ig 20 d) was 14.99±2.90^∗∗ µg/mg. For the same compound, the “Serum 5-HT” value ([5]; middle dose 15 mg/kg ig 20 d) was 31.88±4.40^∗∗ µg/ml, the AWR scoring ([5]; middle dose 15 mg/kg ig 20 d, 20 mm Hg) was 1.79±0.23^∗∗ ∗ and the AWR scoring ([5]; middle dose 15 mg/kg ig 20 d, 40 mm Hg) was 2.87±0.65^∗∗. For the same compound, the AWR scoring ([5]; middle dose 15 mg/kg ig 20 d, 60 mm Hg) was 3.27±0.51^∗∗, the “5-HT level in colon and serum, in words” value ([5]; compared with the model group) was “significantly decrease” and the “AWR scoring, in words” value ([5]; compared with the model group) was “significantly decrease”.
